Assays:
[1] = refractive index (Na D-line) (dimensionless); xn = mol fraction of the nth substance listed; details: 81.5 kPa, Liquid, Standard Abbe refractometry
[2] = xn = mol fraction of the nth substance listed; details: 81.5 kPa, Liquid, Vibrating tube method

Brc1ccccc1 [bromobenzene] + Clc1ccccc1
Details	mass density, [2] [kg/m3]	refractive index, [1]
293.15 K, x2 = 0	1495.52	1.55981
293.15 K, x2 = 0.1004	1457.81	1.55614
293.15 K, x2 = 0.2188	1413.03	1.55183
293.15 K, x2 = 0.3025	1381.12	1.54881
293.15 K, x2 = 0.4005	1343.53	1.54531
293.15 K, x2 = 0.5003	1304.91	1.54178
293.15 K, x2 = 0.6014	1265.46	1.53824
293.15 K, x2 = 0.6985	1227.24	1.53488
293.15 K, x2 = 0.7976	1187.96	1.53149
293.15 K, x2 = 0.899	1147.37	1.52802
303.15 K, x2 = 0	1481.97	1.55442
303.15 K, x2 = 0.1004	1444.57	1.55075
303.15 K, x2 = 0.2188	1400.11	1.54645
303.15 K, x2 = 0.3025	1368.44	1.54341
303.15 K, x2 = 0.4004	1331.07	1.5399
303.15 K, x2 = 0.5002	1292.73	1.53635
303.15 K, x2 = 0.6014	1253.57	1.5328
303.15 K, x2 = 0.6985	1215.65	1.52943
303.15 K, x2 = 0.7975	1176.65	1.52602
303.15 K, x2 = 0.8989	1136.37	1.52252
313.15 K, x2 = 0	1468.41	1.5489
313.15 K, x2 = 0.1004	1431.29	1.54525
313.15 K, x2 = 0.2188	1387.2	1.54094
313.15 K, x2 = 0.3025	1355.72	1.53791
313.15 K, x2 = 0.4004	1318.65	1.53439
313.15 K, x2 = 0.5002	1280.55	1.53084
313.15 K, x2 = 0.6014	1241.67	1.52729
313.15 K, x2 = 0.6985	1204.01	1.52391
313.15 K, x2 = 0.7975	1165.32	1.52049
313.15 K, x2 = 0.8989	1125.28	1.51697
323.15 K, x2 = 0	1454.85	1.54319
323.15 K, x2 = 0.1004	1418.03	1.53956
323.15 K, x2 = 0.2188	1374.22	1.53528
323.15 K, x2 = 0.3025	1342.96	1.53225
323.15 K, x2 = 0.4004	1306.14	1.52874
323.15 K, x2 = 0.5002	1268.32	1.5252
323.15 K, x2 = 0.6014	1229.71	1.52165
323.15 K, x2 = 0.6985	1192.33	1.51827
323.15 K, x2 = 0.7975	1153.89	1.51484
323.15 K, x2 = 0.8989	1114.13	1.51133
333.15 K, x2 = 0	1441.22	1.53742
333.15 K, x2 = 0.1004	1404.71	1.53383
333.15 K, x2 = 0.2188	1361.19	1.52957
333.15 K, x2 = 0.3025	1330.15	1.52657
333.15 K, x2 = 0.4004	1293.58	1.52308
333.15 K, x2 = 0.5002	1256.04	1.51956
333.15 K, x2 = 0.6014	1217.71	1.51602
333.15 K, x2 = 0.6985	1180.59	1.51266
333.15 K, x2 = 0.7975	1142.42	1.50924
333.15 K, x2 = 0.8989	1102.93	1.50574

Brc1ccccc1 [bromobenzene] + O=[N+]([O-])c1ccccc1
Details	mass density, 293.15 K [kg/m3]	mass density, 303.15 K [kg/m3]	mass density, 313.15 K [kg/m3]	mass density, 323.15 K [kg/m3]	mass density, 333.15 K [kg/m3]	refractive index, 293.15 K	refractive index, 303.15 K	refractive index, 313.15 K	refractive index, 323.15 K	refractive index, 333.15 K
[1], x1 = 0.0998	–	–	–	–	–	1.55317	1.54834	1.54352	1.53852	1.53345
[1], x1 = 0.2013	–	–	–	–	–	1.55394	1.54905	1.54416	1.53909	1.534
[1], x1 = 0.2985	–	–	–	–	–	1.55468	1.54973	1.54477	1.53962	1.53452
[1], x1 = 0.3968	–	–	–	–	–	1.55542	1.55041	1.54538	1.54015	1.53503
[1], x1 = 0.505	–	–	–	–	–	1.55622	1.55115	1.54603	1.54072	1.53559
[1], x1 = 0.5974	–	–	–	–	–	1.5569	1.55177	1.54658	1.5412	1.53605
[1], x1 = 0.6987	–	–	–	–	–	1.55764	1.55245	1.54718	1.54171	1.53654
[1], x1 = 0.8018	–	–	–	–	–	1.55838	1.55313	1.54777	1.54223	1.53704
[1], x1 = 0.8963	–	–	–	–	–	1.55906	1.55375	1.54831	1.54269	1.53748
[1], x1 = 1	–	–	–	–	–	1.55981	1.55442	1.5489	1.54319	1.53742
[2], x1 = 0.0998	1232.31	1221.95	1211.59	1201.25	1190.87	–	–	–	–	–
[2], x1 = 0.2013	1262.07	1251.35	1240.6	1229.85	1219.06	–	–	–	–	–
[2], x1 = 0.2985	1290.56	1279.49	1268.39	1257.29	1246.12	–	–	–	–	–
[2], x1 = 0.3968	1319.31	1307.88	1296.44	1284.95	1273.45	–	–	–	–	–
[2], x1 = 0.505	1350.9	1339.07	1327.25	1315.36	1303.45	–	–	–	–	–
[2], x1 = 0.5974	1377.81	1365.65	1353.48	1341.27	1329.01	–	–	–	–	–
[2], x1 = 0.6987	1407.3	1394.76	1382.18	1369.62	1357.01	–	–	–	–	–
[2], x1 = 0.8018	1437.33	1424.41	1411.45	1398.53	1385.53	–	–	–	–	–
[2], x1 = 0.8963	1464.97	1451.69	1438.42	1425.19	1411.84	–	–	–	–	–
[2], x1 = 1	1495.52	1481.97	1468.41	1454.85	1441.22	–	–	–	–	–

Clc1ccccc1 [chlorobenzene] + O=[N+]([O-])c1ccccc1
Details	mass density, 293.15 K [kg/m3]	mass density, 303.15 K [kg/m3]	mass density, 313.15 K [kg/m3]	mass density, 323.15 K [kg/m3]	mass density, 333.15 K [kg/m3]	refractive index, 293.15 K	refractive index, 303.15 K	refractive index, 313.15 K	refractive index, 323.15 K	refractive index, 333.15 K
[1], x1 = 0.1792	–	–	–	–	–	1.54704	1.54217	1.53739	1.53251	1.52761
[1], x1 = 0.2018	–	–	–	–	–	1.54638	1.5415	1.53671	1.53184	1.52695
[1], x1 = 0.2994	–	–	–	–	–	1.54356	1.53864	1.53383	1.52896	1.52412
[1], x1 = 0.3967	–	–	–	–	–	1.54078	1.53584	1.531	1.52612	1.52129
[1], x1 = 0.491	–	–	–	–	–	1.53813	1.53317	1.52829	1.52338	1.51851
[1], x1 = 0.5425	–	–	–	–	–	1.5367	1.53172	1.52682	1.52186	1.51697
[1], x1 = 0.6479	–	–	–	–	–	1.53381	1.52879	1.52381	1.51876	1.51377
[1], x1 = 0.7553	–	–	–	–	–	1.53092	1.52581	1.52072	1.51554	1.5104
[1], x1 = 0.8748	–	–	–	–	–	1.52777	1.52252	1.51723	1.51185	1.50652
[1], x1 = 1	–	–	–	–	–	1.52455	1.51902	1.51346	1.50781	1.50223
[2], x1 = 0.1792	1186.15	1176.1	1166.03	1155.95	1145.83	–	–	–	–	–
[2], x1 = 0.2018	1184.02	1173.95	1163.86	1153.76	1143.62	–	–	–	–	–
[2], x1 = 0.2994	1174.79	1164.64	1154.47	1144.27	1134.02	–	–	–	–	–
[2], x1 = 0.3967	1165.55	1155.32	1145.05	1134.75	1124.4	–	–	–	–	–
[2], x1 = 0.491	1156.55	1146.24	1135.88	1125.49	1115.04	–	–	–	–	–
[2], x1 = 0.5425	1151.59	1141.23	1130.83	1120.39	1109.89	–	–	–	–	–
[2], x1 = 0.6479	1141.41	1130.96	1120.45	1109.9	1099.31	–	–	–	–	–
[2], x1 = 0.7553	1130.91	1120.36	1109.75	1099.09	1088.41	–	–	–	–	–
[2], x1 = 0.8748	1119.07	1108.4	1097.7	1086.93	1076.14	–	–	–	–	–
[2], x1 = 1	1106.49	1095.71	1084.86	1073.96	1063.01	–	–	–	–	–
